Calls of active or inactive are those of the source.
Columns and labels:
[1] = target: Potassium voltage-gated channel subfamily KQT member 2 (Rattus norvegicus, UniProt O88943, W236L); assay: potentiation of rat KCNQ2 current – cell-based, automated electrophysiology, mechanism study for KCNQ2 potentiator project, dose response (AID 2603); format: functional
[2] = target: T1, 1-phosphatidylinositol 4,5-bisphosphate phosphodiesterase beta-3 (Homo sapiens, UniProt Q01970); assay: Fluorescence-based biochemical high throughput dose response assay to identify inhibitors of phospholipase C isozymes (PLC-B3).
T1 sequence (Q01970 whole entry): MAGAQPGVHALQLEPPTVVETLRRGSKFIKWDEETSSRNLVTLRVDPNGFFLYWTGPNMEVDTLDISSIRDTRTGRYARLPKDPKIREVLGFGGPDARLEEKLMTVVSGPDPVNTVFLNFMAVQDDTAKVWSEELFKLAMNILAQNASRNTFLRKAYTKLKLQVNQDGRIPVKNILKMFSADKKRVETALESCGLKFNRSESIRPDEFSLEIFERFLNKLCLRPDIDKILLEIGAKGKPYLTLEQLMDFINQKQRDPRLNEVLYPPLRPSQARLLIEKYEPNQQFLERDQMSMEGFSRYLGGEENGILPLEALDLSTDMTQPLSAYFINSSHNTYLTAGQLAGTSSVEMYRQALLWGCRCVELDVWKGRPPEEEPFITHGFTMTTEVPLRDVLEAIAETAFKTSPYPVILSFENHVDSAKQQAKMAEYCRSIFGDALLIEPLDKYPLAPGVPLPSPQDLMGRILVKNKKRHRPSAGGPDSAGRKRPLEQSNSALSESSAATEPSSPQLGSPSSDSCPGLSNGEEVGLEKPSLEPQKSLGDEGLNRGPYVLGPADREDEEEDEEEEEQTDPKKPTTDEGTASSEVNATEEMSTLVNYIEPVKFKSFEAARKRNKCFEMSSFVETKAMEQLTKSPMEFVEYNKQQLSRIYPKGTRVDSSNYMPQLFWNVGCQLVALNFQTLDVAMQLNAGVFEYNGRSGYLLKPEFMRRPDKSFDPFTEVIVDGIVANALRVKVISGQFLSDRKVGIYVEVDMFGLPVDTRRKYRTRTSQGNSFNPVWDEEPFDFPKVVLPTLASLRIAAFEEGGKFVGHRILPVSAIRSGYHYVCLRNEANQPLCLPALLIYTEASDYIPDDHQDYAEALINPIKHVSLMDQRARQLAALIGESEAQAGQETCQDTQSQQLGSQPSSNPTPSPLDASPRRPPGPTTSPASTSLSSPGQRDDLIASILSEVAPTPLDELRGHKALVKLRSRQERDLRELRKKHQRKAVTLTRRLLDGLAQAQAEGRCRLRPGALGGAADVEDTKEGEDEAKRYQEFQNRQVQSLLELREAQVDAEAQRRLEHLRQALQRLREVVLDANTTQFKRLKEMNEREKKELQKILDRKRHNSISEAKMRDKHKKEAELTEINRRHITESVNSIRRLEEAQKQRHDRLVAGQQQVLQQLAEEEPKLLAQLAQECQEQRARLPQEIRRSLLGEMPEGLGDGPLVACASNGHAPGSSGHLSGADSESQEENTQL

[3] = target: Dual specificity tyrosine-phosphorylation-regulated kinase 1A (Rattus norvegicus, UniProt Q63470); format: biochemical, Homo sapiens
[4] = viability of HCT116 lacking mutant beta-catenin – cell-based, human colon tumor, dose response (AID 1045); format: functional;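 further: HCT116 colon tumor cells with beta catenin knocked out; cells exposed to compound for 60 hours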
Caspase-3 = target: T2, Caspase-3 (Homo sapiens, UniProt P42574); assay: SAR Analysis of small molecule inhibitors of Sentrin-specific proteases (SENPs) using a Caspase-3 Selectivity assay. [Related pubchem assays (depositor defined):AID2540, AID2599, AID434973, AID489001]; format: functional
T2 sequence (P42574 whole entry): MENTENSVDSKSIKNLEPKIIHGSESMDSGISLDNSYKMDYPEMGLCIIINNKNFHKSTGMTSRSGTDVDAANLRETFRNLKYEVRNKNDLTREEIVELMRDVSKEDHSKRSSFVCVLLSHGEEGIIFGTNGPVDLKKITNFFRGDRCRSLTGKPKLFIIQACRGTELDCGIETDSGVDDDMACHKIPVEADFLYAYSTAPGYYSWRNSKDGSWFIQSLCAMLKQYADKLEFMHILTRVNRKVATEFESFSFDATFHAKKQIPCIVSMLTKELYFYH

HeLa = assay: Cytotoxicity counterscreen assay for transcriptional activators of heat shock protein 70 (Hsp70). [Related pubchem assays: 1203, 1252 ]; format: functional; conditions: Homo sapiens
[5] = reduction of Shn3 3'UTR-driven luciferase in osteoblasts – cell-based, Clone20 osteoblasts, firefly luciferase, cherry-picked, dose response (AID 624132); format: functional;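 further: firefly luciferase luminescence from reporter carrying the Shn3 3'UTR in osteoblasts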
BJ = assay: BJ-TERT-LT-ST fibroblast viability loss – cell-based, RAS-independent, luminescence, dose response (AID 1935); format: functional; conditions: Homo sapiens;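 further: BJ fibroblasts immortalized with TERT plus LT and ST oncogenes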
[6] = HEK-293T viability loss after treatment – luminescence, T-cell screen hits, cytotoxicity control for TCR NF-kB inhibitor project, dose response (AID 489026); format: functional, cell-based;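 further: cells exposed to compound about 14 hours before the viability readout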
[7] = target: T3, Heat shock factor protein 1 (Mus musculus, UniProt P38532); assay: decrease of HSF1-responsive luciferase luminescence – cell-based, NIH3T3, dose retest, confirmation (AID 2382); format: functional;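 further: NIH3T3 fibroblasts with HSF1-driven luciferase reporter stressed by proteasome inhibitor MG132; luminescence from HSF1-driven luciferase expression after 8 hours of MG132 stress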
T3 sequence (P38532 whole entry): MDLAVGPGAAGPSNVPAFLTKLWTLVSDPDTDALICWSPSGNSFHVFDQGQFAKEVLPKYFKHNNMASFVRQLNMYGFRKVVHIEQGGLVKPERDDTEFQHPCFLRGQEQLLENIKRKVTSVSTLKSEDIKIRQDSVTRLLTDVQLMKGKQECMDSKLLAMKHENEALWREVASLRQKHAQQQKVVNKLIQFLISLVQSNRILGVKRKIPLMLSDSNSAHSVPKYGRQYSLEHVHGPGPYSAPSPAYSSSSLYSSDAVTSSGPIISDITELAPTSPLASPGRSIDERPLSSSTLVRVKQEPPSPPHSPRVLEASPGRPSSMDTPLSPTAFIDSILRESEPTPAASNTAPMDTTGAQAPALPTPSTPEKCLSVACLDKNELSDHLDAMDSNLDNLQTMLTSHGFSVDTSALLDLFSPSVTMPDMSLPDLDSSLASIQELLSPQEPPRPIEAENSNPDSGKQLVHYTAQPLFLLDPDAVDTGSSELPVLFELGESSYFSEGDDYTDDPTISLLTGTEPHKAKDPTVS

[8] = target: Serine/threonine-protein phosphatase (Homo sapiens, UniProt Q9BPW0); assay: inhibition of protein phosphatase 5 activity – biochemical, fluorescence, dose response (AID 2395)
Serine/threonine-protein phosphatase, sequence (Q9BPW0 whole entry): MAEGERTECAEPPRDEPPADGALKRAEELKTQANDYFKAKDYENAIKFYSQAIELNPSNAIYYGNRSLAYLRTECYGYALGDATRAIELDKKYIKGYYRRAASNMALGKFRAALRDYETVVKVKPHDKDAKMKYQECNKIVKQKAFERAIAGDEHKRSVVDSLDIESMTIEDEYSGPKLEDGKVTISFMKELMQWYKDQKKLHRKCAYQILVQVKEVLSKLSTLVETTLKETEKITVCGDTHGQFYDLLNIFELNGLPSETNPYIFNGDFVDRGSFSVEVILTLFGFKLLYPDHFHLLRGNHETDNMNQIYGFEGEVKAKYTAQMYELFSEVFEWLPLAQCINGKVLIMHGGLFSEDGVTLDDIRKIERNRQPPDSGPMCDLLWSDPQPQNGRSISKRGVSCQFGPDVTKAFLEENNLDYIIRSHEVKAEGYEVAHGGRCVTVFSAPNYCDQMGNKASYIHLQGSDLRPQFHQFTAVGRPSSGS

[9] = target: Serine/threonine-protein phosphatase PP1-alpha catalytic subunit (Homo sapiens, UniProt P62136); assay: inhibition of protein phosphatase 1 activity – biochemical, fluorescence, dose response (AID 2394)
Serine/threonine-protein phosphatase PP1-alpha catalytic subunit, sequence (P62136 whole entry): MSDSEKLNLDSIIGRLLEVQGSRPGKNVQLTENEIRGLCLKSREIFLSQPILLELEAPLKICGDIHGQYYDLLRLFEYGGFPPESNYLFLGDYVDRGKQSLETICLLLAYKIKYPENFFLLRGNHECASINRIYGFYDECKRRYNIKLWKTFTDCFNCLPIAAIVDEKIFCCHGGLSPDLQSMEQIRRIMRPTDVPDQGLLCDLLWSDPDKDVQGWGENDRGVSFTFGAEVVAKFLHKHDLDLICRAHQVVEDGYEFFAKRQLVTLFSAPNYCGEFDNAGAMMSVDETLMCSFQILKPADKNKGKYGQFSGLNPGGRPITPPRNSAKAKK

Vero = assay: viability of Vero cells under compound – cytotoxicity control for flavivirus capping enzyme inhibitors (AID 588742); format: functional; conditions: Chlorocebus sabaeus
[10] = target: RNA-editing ligase 1, mitochondrial (Trypanosoma brucei brucei, UniProt P86926); assay: inhibition of trypanosome RNA editing ligase – biochemical, fluorescence, Trypanosoma brucei, dose response (AID 1117295); format: functional
RNA-editing ligase 1, mitochondrial, sequence (P86926 whole entry): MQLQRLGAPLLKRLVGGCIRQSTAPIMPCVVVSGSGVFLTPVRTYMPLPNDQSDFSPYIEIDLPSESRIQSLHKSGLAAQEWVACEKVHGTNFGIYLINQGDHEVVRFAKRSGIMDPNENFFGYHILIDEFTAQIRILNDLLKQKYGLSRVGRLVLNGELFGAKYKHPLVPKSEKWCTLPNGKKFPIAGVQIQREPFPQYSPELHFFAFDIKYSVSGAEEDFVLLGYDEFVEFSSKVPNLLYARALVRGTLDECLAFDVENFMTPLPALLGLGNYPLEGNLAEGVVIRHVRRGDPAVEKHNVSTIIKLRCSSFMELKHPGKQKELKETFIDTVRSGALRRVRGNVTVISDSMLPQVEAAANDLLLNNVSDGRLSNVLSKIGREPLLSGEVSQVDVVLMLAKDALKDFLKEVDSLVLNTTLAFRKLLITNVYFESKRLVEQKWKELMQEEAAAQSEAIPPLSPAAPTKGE

Potassium voltage-gated channel subfamily KQT member 2, sequence (O88943 whole entry W236L): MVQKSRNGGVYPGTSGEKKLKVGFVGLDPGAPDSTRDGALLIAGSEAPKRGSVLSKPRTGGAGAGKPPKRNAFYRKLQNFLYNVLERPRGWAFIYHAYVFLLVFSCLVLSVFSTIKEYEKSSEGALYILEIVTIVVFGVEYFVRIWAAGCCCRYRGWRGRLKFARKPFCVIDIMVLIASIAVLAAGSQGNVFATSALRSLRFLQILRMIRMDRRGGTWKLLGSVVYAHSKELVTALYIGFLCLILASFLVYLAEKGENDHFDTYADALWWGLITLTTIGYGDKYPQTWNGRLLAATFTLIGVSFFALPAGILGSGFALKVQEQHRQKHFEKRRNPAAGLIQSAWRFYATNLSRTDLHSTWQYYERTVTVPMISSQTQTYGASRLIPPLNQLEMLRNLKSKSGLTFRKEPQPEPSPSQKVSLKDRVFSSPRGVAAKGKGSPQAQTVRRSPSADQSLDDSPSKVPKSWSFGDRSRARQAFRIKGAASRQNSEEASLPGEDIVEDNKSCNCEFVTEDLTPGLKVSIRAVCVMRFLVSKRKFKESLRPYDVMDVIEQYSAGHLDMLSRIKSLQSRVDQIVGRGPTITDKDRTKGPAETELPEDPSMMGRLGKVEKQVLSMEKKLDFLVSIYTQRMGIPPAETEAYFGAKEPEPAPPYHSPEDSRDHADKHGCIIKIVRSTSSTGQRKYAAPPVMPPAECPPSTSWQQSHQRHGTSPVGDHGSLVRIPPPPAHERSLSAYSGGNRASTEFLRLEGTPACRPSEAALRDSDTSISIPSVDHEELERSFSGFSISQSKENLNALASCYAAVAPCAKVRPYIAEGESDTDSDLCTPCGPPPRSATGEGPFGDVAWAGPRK

## Cc1ccccc1NC1=C/C(=N\S(=O)(=O)c2ccc(C(=O)O)cc2)c2ccccc2C1=O
[1]
  EC50: 9.51 µM (active)
[2]
  IC50: > 122 µM (inactive)
[3]
  AC50: 4.11 µM (active)

## Cc1ccc(NC2=C/C(=N/S(=O)(=O)c3cccs3)c3ccccc3C2=O)cc1
[4]
  EC50: 2.82 µM (active)

## O=C(Nc1ccc(C#Cc2ccccc2)cc1)C1CC1
Caspase-3
  IC50: 19.7 µM (active)

## COC(=O)C[C@]1(C(=O)OC)CN(C#N)N(c2ccc(Cl)cc2)C12c1ccccc1-c1ccccc12
HeLa
  CC50: 3.55 µM (active)
[5]
  AC50: 1.88 µM (active)
BJ
  EC50: 2.78 µM (inconclusive)
[6]
  IC50: > 80 µM (inactive)
[7]
  EC50: 2.74 µM (active)

## CCCCn1c(NC(=O)c2ccco2)c(C(=O)OCC)c2nc3ccccc3nc21
[8]
  IC50: 10.3 µM (not active)
[9]
  IC50: 62.5 µM (not active)
Vero
  CC50: > 40 µM (active)
[10]
  IC50: 21.8 µM (inactive)
